Measured values reported in US11518764B2, “Substituted heteroaryls as inhibitors of the BCL6 BTB domain protein-protein interaction” (Ontario Institute for Cancer Research (OICR), priority 2018, dated 2022).
Like-named read-outs stand apart in the source and are kept apart here.

How the values were obtained:
Karpas422 cells = assay: Tumor cell growth inhibition assay; type: cell-based
Method: Tumor Cell Growth inhibition Assay
Karpas422 cells were seeded into a 96-well plate at 2,000 cells/well in 150 ul medium (Alpha-MEM containing 10% FBS, […] Normocin, and […] Gentamycin, Invitrogen). A HP D300 digital dispenser was used to dose cells with DMSO or test compounds across a 10-point range of concentrations (high dose of 5 uM), and cultures were grown in a humidified 5% CO2 incubator at 37° C. After six days, plates were removed from incubator and equilibrated to room temperature. An equal volume of ATPlite assay reagent was added to each well, and samples were processed according to manufacturer's instructions (Perkin Elmer). Luminescent signal was measured using an Envision plate reader equipped with a US-Luminescence detector.

BCL6 BTB domain = BCL6 BTB domain (Homo sapiens (Human), UniProt P41182); assay: Surface plasmon resonance (SPR) assay; type: binding; details: BCL6 BTB domain captured on SA chip, single cycle kinetics
[1] = test system: BCL6 reporter construct (3xBCL6-TK-Luc) in SuDHL4 cells; assay: Cell-based luciferase assay
Method: Cell-Based Luciferase Assay
A BCL6 reporter construct containing three copies of the consensus BCL6 binding site, the TK promoter, and the firefly luciferase gene was stably expressed in SuDHL4 cells after lentivirus infection and selection with Blasticidin. SuDHL4-3×BCL6-TK-Luc cells were seeded into a Viewplate 384-well assay dish at 15,000 cells/well in 25 ul medium (Alpha-MEM high glucose containing 10% FBS, 25 mM HEPES, […] GlutaMAX, 100 ug/ml Normocin, and […] Gentamycin, Invitrogen). A HP D300 digital dispenser was used to dose cells with DMSO or test compounds across a 10-point range of concentrations (high dose of 10 uM), and cultures were grown in a humidified 5% CO2 incubator at 37° C. After two days, plates were removed from the incubator and equilibrated to room temperature. An equal volume of neolite reporter gene assay reagent was added to each well, and samples were processed according to manufacturer's instructions (Perkin Elmer). Luminescent signal was measured using an Envision plate reader equipped with a US-Luminescence detector.

[2] = Homo sapiens, KARPAS-422, 144 h, read-out: Tumor Growth Inhibition in Karpas-422 (IC50, uM), Karpas422 cells, six days, ATPlite
[3] = Homo sapiens, SU-DHL-4, 48 h, read-out: Luciferase-Assay EC50, uM), SuDHL4-3xBCL6-TK-Luc cells, two days, high dose 10 uM

Structure (SMILES)	IC50 (Karpas422 cells; [2]) [µM]	Kd (BCL6 BTB domain) [nM]	EC50 [1, 3] [µM]	IC50 (Karpas422 cells; Karpas422 cells, six days, ATPlite, read-out: Tumor Growth Inhibition in Karpas-422 (IC50)) [µM]	EC50 ([1]; SuDHL4-3xBCL6-TK-Luc cells, two days, high dose 10 uM, read-out: Luciferase-Assay EC50) [µM]	IC50 (Karpas422 cells; read-out: Tumor Growth Inhibition in Karpas-422 (IC50), Karpas422 cells, six days, ATPlite) [µM]	EC50 ([1]; read-out: Luciferase-Assay EC50, SuDHL4-3xBCL6-TK-Luc cells, two days, high dose 10 uM) [µM]
Cn1cnc2c(c(-c3cc(Cl)c(O)c(C(N)=O)c3)cn2CC(=O)Nc2cc(N3CCC4(CCOCC4)CC3)ncc2Cl)c1=O [Compound I-77]	0.115	27	0.279				
C[C@H]1COCCN1c1cc(NC(=O)Cn2cc(-c3cc(Cl)c(O)c(C(N)=O)c3)c3c(=O)n(CC#Cc4cnn(C)c4)cnc32)c(Cl)cn1 [Compound I-82]	0.034	6	0.133				
CC1OCCN(c2cc(NC(=O)Cn3cc(-c4cc(Cl)c(O)c(C(N)=O)c4)c4c(=O)n(C)cnc43)c(Cl)cn2)C1C (stereo not drawn) [Compound I-83]	0.119	16	0.148				
Cc1nc2c(c(-c3cc(Cl)c(O)c(C(N)=O)c3)cn2CC(=O)Nc2cc(N3C[C@@H](C)O[C@@H](C)C3)ncc2Cl)c(=O)[nH]1 [Compound I-85]	0.064	11	0.076				
Cc1nc2c(s1)CN(c1cc(NC(=O)Cn3cc(-c4cc(Cl)c(O)c(C(N)=O)c4)c4c(=O)n(C)cnc43)c(Cl)cn1)C2 [Compound I-108]	0.408	30	0.203				
Cc1c(O)c(C(N)=O)cc(-c2cn(CC(=O)Nc3cc(N4CCOCC4)ncc3Cl)c3ncn(C)c(=O)c23)c1F [Compound I-118]	2.45	2000	> 10				
Cc1c(O)c(C(N)=O)cc(-c2cn(CC(=O)Nc3cc(N4C[C@@H](C)O[C@@H](C)C4)ncc3Cl)c3ncn(C)c(=O)c23)c1F [Compound I-119]	> 10	4000	> 10				
COc1cc(-c2cn(CC(=O)Nc3cc(N4CCOC[C@@H]4C)ncc3Cl)c3nc(C)n(C)c(=O)c23)cc(C(N)=O)c1O [Compound I-122]	0.078	6	0.119				
COc1cc(-c2cn(CC(=O)Nc3cc(N4CCOCC4)ncc3Cl)c3nc(C)n(C)c(=O)c23)cc(C(N)=O)c1O [Compound I-123]	0.216	7	0.095				
Cn1c(NCC2CC2)nc2c(c(-c3cc(Cl)c(O)c(C(N)=O)c3)cn2CC(=O)Nc2cc(N3CCOCC3)ncc2Cl)c1=O [Compound I-124]	0.434	86	0.371				
Cn1cnc2c(c(-c3cc(Cl)c(O)c(C(N)=O)c3)cn2CC(=O)Nc2cc(N3C4CCC3CC4)ncc2Cl)c1=O [Compound I-125]	0.407	30	3.76				
Cn1cnc2c(c(-c3cc(Cl)c(O)c(C(N)=O)c3)cn2CC(=O)Nc2cc(N3CC4CCC3C4)ncc2Cl)c1=O (stereo not drawn) [Compound I-126]	0.268	39	2.85				
Cn1c(CCc2ccc(F)cc2)nc2c(c(-c3cc(Cl)c(O)c(C(N)=O)c3)cn2CC(=O)Nc2cc(N3CCOCC3)ncc2Cl)c1=O [Compound I-127]	0.276	201	0.756				
Cc1nc2c(c(-c3cc(Cl)c(O)c(C(N)=O)c3)cn2CC(=O)Nc2cc(N3CCN(C)C[C@@H]3C)ncc2Cl)c(=O)[nH]1 [Compound I-128]	0.074	12	0.173				
CN(C)c1cc(NC(=O)Cn2cc(-c3cc(Cl)c(O)c(C(N)=O)c3)c3c(=O)n(C)c(NCc4ccc(F)cc4)nc32)c(Cl)cn1 [Compound I-129]	0.866	44	2.62				
CN(C)c1cc(NC(=O)Cn2cc(-c3cc(Cl)c(O)c(C(N)=O)c3)c3c(=O)n(C)c(NCC4CC4)nc32)c(Cl)cn1 [Compound I-130]	0.775	80	1.03				
Cn1cnc2c(c(-c3cc(C(N)=O)c(O)cn3)cn2CC(=O)Nc2cc(N3CCOCC3)ncc2Cl)c1=O [Compound I-131, 2-(7-(2-((5-chloro-2-morpholinopyridin-4-yl)amino)-2-oxoethyl)-3-methyl-4-oxo-4,7-dihydro-3H-pyrrolo[2,3-d]pyrimidin-5-yl)-5-hydroxyisonicotinamide]		8000		> 10	> 10		
CN1CCOC2(CCN(c3cc(NC(=O)Cn4cc(-c5cc(Cl)c(O)c(C(N)=O)c5)c5c(=O)n(C)cnc54)c(Cl)cn3)C2)C1 (stereo not drawn) [Compound I-132]	0.067	10	0.192				
CN1CCC2(C1)CN(c1cc(NC(=O)Cn3cc(-c4cc(Cl)c(O)c(C(N)=O)c4)c4c(=O)n(C)cnc43)c(Cl)cn1)CCO2 (stereo not drawn) [Compound I-133]	0.199	30	0.137				

Structure (SMILES)	IC50 (Karpas422 cells; [2]) [µM]	Kd (BCL6 BTB domain) [nM]	EC50 [1, 3] [µM]	IC50 (Karpas422 cells; Karpas422 cells, six days, ATPlite, read-out: Tumor Growth Inhibition in Karpas-422 (IC50)) [µM]	EC50 ([1]; SuDHL4-3xBCL6-TK-Luc cells, two days, high dose 10 uM, read-out: Luciferase-Assay EC50) [µM]	IC50 (Karpas422 cells; read-out: Tumor Growth Inhibition in Karpas-422 (IC50), Karpas422 cells, six days, ATPlite) [µM]	EC50 ([1]; read-out: Luciferase-Assay EC50, SuDHL4-3xBCL6-TK-Luc cells, two days, high dose 10 uM) [µM]
Cn1c(NCCC(F)(F)F)nc2c(c(-c3cc(Cl)c(O)c(C(N)=O)c3)cn2CC(=O)Nc2cc(N3CCOCC3)ncc2Cl)c1=O [Compound I-134]	0.57	97	0.477				
C[C@@H]1CCCN1c1cc(NC(=O)Cn2cc(-c3cc(Cl)c(O)c(C(N)=O)c3)c3c(=O)n(C)cnc32)c(Cl)cn1 [Compound I-135]	1.43	69	3.01				
C[C@H]1CCCN1c1cc(NC(=O)Cn2cc(-c3cc(Cl)c(O)c(C(N)=O)c3)c3c(=O)n(C)cnc32)c(Cl)cn1 [Compound I-136]	0.96	55	0.578				
C[C@H]1COCCN1c1cc(NC(=O)Cn2cc(-c3cc(F)c(O)c(C(N)=O)c3)c3c(=O)n(C)ccc32)c(Cl)cn1 [Compound I-137]	1.74	66	1.34				
C[C@H]1COCCN1c1cc(NC(=O)Cn2cc(-c3cc(Cl)c(O)c(C(N)=O)c3)c3c(=O)n(C)ccc32)c(Cl)cn1 [Compound I-138]	1.72	178	1.74				
Cc1cc(-c2cn(CC(=O)Nc3cc(N4CCOC[C@@H]4C)ncc3Cl)c3ccn(C)c(=O)c23)cc(C(N)=O)c1O [Compound I-139]	> 10	3270	8.35				
Cn1ccc2c(c(-c3cc(F)c(O)c(C(N)=O)c3)cn2CC(=O)Nc2cc(N3CCOCC3)ncc2Cl)c1=O [Compound I-140]	1.28	317	1.33				
Cn1ccc2c(c(-c3cc(Cl)c(O)c(C(N)=O)c3)cn2CC(=O)Nc2cc(N3CCOCC3)ncc2Cl)c1=O [Compound I-141]	1.02	265	1.83				
Cc1cc(-c2cn(CC(=O)Nc3cc(N4CCOCC4)ncc3Cl)c3ccn(C)c(=O)c23)cc(C(N)=O)c1O [Compound I-142]	> 10	2200	4.02				
C[C@H]1COCCN1c1cc(NC(=O)Cn2cc(-c3cc(Cl)c(O)c(C(N)=O)c3)c3c(=O)[nH]cnc32)c(Cl)cn1 [Compound I-145]	0.551	6.09	0.303				
CN1C(C)(C)CN(c2cc(NC(=O)Cn3cc(-c4cc(Cl)c(O)c(C(N)=O)c4)c4c(=O)n(C)cnc43)c(Cl)cn2)CC1(C)C [Compound I-146]	0.121	18.4	0.182				
Cn1cnc2c(c(-c3cc(Cl)c(O)c(C(N)=O)c3)cn2CC(=O)Nc2cc(N3CCOC(C)(C)C3)ncc2Cl)c1=O [Compound I-147]	0.0995	19.6	0.144				
CN(C1CCC(c2cc(NC(=O)Cn3cc(-c4cc(Cl)c(O)c(C(N)=O)c4)c4c(=O)n(C)cnc43)c(Cl)cn2)C1)S(C)(=O)=O (stereo not drawn) [Compound I-148]	0.541	20.9	1.31				
CN(C1CCC(c2cc(NC(=O)Cn3cc(-c4cc(Cl)c(O)c(C(N)=O)c4)c4c(=O)n(C)cnc43)c(Cl)cn2)C1)S(C)(=O)=O (stereo not drawn) [Compound I-149]		16.3				0.617	0.725
COC[C@@H]1COCCN1c1cc(NC(=O)Cn2cc(-c3cc(Cl)c(O)c(C(N)=O)c3)c3c(=O)n(C)cnc32)c(Cl)cn1 [Compound I-150]	0.124	12.8	0.184				
COC[C@H]1COCCN1c1cc(NC(=O)Cn2cc(-c3cc(Cl)c(O)c(C(N)=O)c3)c3c(=O)n(C)cnc32)c(Cl)cn1 [Compound I-151]	0.144	10.6	0.168				
Cn1cnc2c(c(-c3cc(Cl)c(O)c(C(N)=O)c3)cn2CC(=O)Nc2cc(N3Cc4ccncc4C3)ncc2Cl)c1=O [Compound I-152]	0.134	20.7	0.168				
COc1cc(-c2cn(CC(=O)Nc3cc(N4CCOC[C@@H]4C)ncc3Cl)c3ncn(C)c(=O)c23)cc(C(N)=O)c1O [Compound I-153]	0.176	4.14	0.313				
